Series [1] can be described thus: Solubility of resveratrol in glycerin tested using UV/vis spectroscopy. The format is physicochemical. The source says:
This low solubility inhibits adequate, reproducible absorption from the gastrointestinal tract. For this reason, poor solubility is closely associated with low bioavailability. […] Glycerin engages in H-bonding interactions at both ends of the molecule, forming a 2:1 H-bonding complex.

The conditions of series [2]: cited from earlier work.

Molecules are shown by their SMILES.

As to `Oc1ccc(C=Cc2cc(O)cc(O)c2)cc1` [resveratrol, 3,5,4′-trihydroxystilbene], the “times more soluble in glycerin than in water” value in series [1] (glycerin versus water) is given as “at least 48 times”. Besides, in series [1] (glycerin, UV/vis spectroscopy), the “solubility of resveratrol in glycerin” value is listed as at least 144 mg/100 mL. Also, the “solubility of resveratrol in water” value in series [2] is on record as “approximately 3 mg/100 mL”.
